Two compounds from paper PMC6269846, “Pyrrolizidine Alkaloids and Fatty Acids from the Endemic Plant Species Rindera umbellata and the Effect of Lindelofine-N-oxide on Tubulin Polymerization” (Molecules, 2013) can be followed below.

Test [1] relates to T1, tubulin.
T1 construct: tubulin isolated from bovine brain (α/β heterodimer); with α-tubulin/β-tubulin heterodimer
The test is described as follows: turbidimetric tubulin polymerization assay (absorbance at […] nm), positive control. Format: biochemical, Bos taurus.

Test [2] concerns T1, tubulin. The test is described as follows: turbidimetric tubulin polymerization assay (absorbance at […] nm). Format: biochemical, Bos taurus.

In general, IC50 refers to the midpoint of a concentration-inhibition curve. Consider `CC(=O)O[C@H]1C(=O)[C@@]2(C)[C@H]([C@H](OC(=O)c3ccccc3)[C@]3(O)C[C@H](OC(=O)[C@H](O)[C@@H](NC(=O)c4ccccc4)c4ccccc4)C(C)=C1C3(C)C)[C@]1(OC(C)=O)CO[C@@H]1C[C@@H]2O` [paclitaxel], for which the midpoint of inhibition in the test with tubulin [1], the IC50, lay at 2.4 µM. For `CC(C)[C@@](O)(C(=O)OC[C@@H]1CC[N+]2([O-])CCC[C@H]12)[C@@H](C)O` (stereo partly drawn) [compound 7, (2S,3R)-((1R,7aR)-hexahydro-1H-pyrrolizin-1-yl)methyl2,3-dihydroxy-2-isopropylbutanoate-N-oxide], in the test with tubulin [2], the IC50 was 91 µM.
